Experimental data: patent publication US20250108048A1, “STING AGONIST COMPOUNDS AND CONJUGATES” (SUTRO BIOPHARMA, INC., priority 2023, published 2025)
Like-named read-outs stand apart in the source and are kept apart here.

What was measured:
hSTING-R232 = target: T1, hSTING-R232 (Homo sapiens, UniProt Q86WV6, H232R); experiment: THP1-Dual KI-hSTING-R232 reporter assay (IRF pathway, secreted Lucia luciferase); format: cell-based; details: THP1-Dual KI-hSTING-R232 cells, 24 hours; read-out: Reporter assay EC50 (nM) THP-1-R232
T1 construct: host or cells: THP1-Dual KI-hSTING-R232 (from THP1-Dual KO-STING)
T1 sequence (Q86WV6 whole entry H232R): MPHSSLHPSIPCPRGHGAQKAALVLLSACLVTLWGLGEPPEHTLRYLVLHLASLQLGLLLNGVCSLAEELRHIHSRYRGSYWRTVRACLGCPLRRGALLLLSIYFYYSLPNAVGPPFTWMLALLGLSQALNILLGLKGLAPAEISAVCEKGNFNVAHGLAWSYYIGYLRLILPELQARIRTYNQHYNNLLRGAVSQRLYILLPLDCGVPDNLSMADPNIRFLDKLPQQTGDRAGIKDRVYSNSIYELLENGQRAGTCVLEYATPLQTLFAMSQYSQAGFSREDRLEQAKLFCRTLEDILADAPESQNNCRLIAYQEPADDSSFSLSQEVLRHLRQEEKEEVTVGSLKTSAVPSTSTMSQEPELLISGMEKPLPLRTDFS
Experimental: (§1) The activities of the STING agonists to activate human or mouse STING pathways were evaluated in THP-1-Dual™, THP1-Dual™ KI-hSTING-R232, THP1-Dual™ KI-hSTING-H232 Cells and THP1-Dual™ KI-mSTING Cells. THP-1-Dual™ cells contains hSTING-HAQ haplotype and can be used to evaluate the activity of STING agonists by monitoring the activation of NF-κB pathway and the […] (IFN regulatory factor) pathways. THP1-Dual™ KO-STING cells were generated from THP1-Dual™ cells by stable knockout of the endogenous HAQ STING gene. THP1-Dual™ KI-hSTING-R232 cells, THP1-Dual™ KI-hSTING-H232 cells and THP1-Dual™ KI-mSTING cells were generated by transfecting THP1-Dual™ KO-STING cells with hSTING-R232 or hSTING-H232 or mSTING. Stimulating these reporter cells with a STING agonist activates TRF pathway and induces the production of a secreted Lucia luciferase in the cell culture medium, which can be determined using QUANTI-Luc™ reagent.
(§2) THP-1-Dual™, THP1-Dual™ KI-hSTING-R232, THP1-Dual™ KI-hSTING-H232 and THP1-Dual™ KI-mSTING reporter cells were purchased from Invivogen and maintained in manufacture recommended culture medium with required supplemental antibiotics. On the day of assay, the cells were harvested with Accutase and counted by the Vi-CELL Cell Viability Analyzers. Cells were resuspended in HEK blue detection medium and a total of 10000 cells were seeded in each well of a 384-well flat bottom plate. […] After incubation at 37° C. in a CO2 incubator for 24 hours, 20 μl of cell culture medium per well was transferred into a 384-well white (opaque) plate. 50 μl of QUANTI-Luc™ assay solution was then added to each well and the plate was immediately transferred to an ENVISION® plate reader to measure luminescence (Perkin-Elmer). Relative luminescence readings were converted to fold change of signal using untreated cells as controls. Data was fitted with non-linear regression analysis, using log (agonist) vs. response, variable slope, 4-parameter fit equation using GraphPad Prism. Data was expressed as fold change in signal vs. dose of STING agonist in nM with error bars indicating the Standard Deviation (SD) of the quadruplicates. There result was reported in Table 2 as EC50 (the midpoint of the curve, or concentration at which […] of the maximum effect was observed).

hSTING-HAQ haplotype = target: T2, hSTING-HAQ haplotype (Homo sapiens, UniProt Q86WV6, G230A/H232R/R293Q/R71H); experiment: THP-1-Dual reporter assay (endogenous hSTING-HAQ); format: cell-based; details: THP-1-Dual cells (hSTING-HAQ), 24 hours
T2 construct: host or cells: THP-1-Dual
T2 sequence (Q86WV6 whole entry R71H/G230A/H232R/R293Q): as the sequence (Q86WV6 whole entry H232R) above, with R71H, G230A, R293Q counted along it
Experimental: as §1, §2

hSTING H232 [1] = target: T3, hSTING H232 (Homo sapiens, UniProt Q86WV6); experiment: Surface plasmon resonance, hSTING H232; format: binding; details: read-out: hSTING H232 SPR (Kd)
T3 sequence (Q86WV6 whole entry): as the sequence (Q86WV6 whole entry H232R) above, with R232H counted along it

hSTING H232 [2] = target: T3, hSTING H232; experiment: THP1-Dual KI-hSTING-H232 reporter assay (IRF pathway, secreted Lucia luciferase); format: cell-based; parameters: host or cells: THP1-Dual KI-hSTING-H232 (from THP1-Dual KO-STING); details: THP1-Dual KI-hSTING-H232 cells, 24 hours; read-out: Reporter assay EC50 (nM) THP-1-H232
Experimental: as §1, §2

hSTING AQ = hSTING AQ (Homo sapiens, UniProt Q86WV6, G230A/H232R/R293Q); experiment: Surface plasmon resonance, hSTING AQ; format: binding; details: read-out: hSTING AQ SPR (Kd)
hSTING AQ, sequence (Q86WV6 whole entry G230A/H232R/R293Q): as the sequence (Q86WV6 whole entry H232R) above, with G230A, R293Q counted along it

mSTING = target: T4, mSTING (Mus musculus, UniProt Q3TBT3); experiment: 293-mSTING reporter assay; format: cell-based
T4 sequence (Q3TBT3 1-378): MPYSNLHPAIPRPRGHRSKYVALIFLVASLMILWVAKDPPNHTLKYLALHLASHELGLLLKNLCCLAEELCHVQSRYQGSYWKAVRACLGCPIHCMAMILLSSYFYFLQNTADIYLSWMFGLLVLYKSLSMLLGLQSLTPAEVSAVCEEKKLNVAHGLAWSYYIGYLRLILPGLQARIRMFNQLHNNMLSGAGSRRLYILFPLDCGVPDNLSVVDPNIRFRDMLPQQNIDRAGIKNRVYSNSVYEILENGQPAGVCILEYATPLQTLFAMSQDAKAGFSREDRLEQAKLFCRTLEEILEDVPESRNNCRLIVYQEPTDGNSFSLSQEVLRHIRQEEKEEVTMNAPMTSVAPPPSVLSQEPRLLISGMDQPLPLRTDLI

hSTING WT = hSTING WT (Homo sapiens, UniProt Q86WV6); experiment: Surface plasmon resonance, hSTING WT; format: binding; details: read-out: hSTING WT SPR (Kd)
hSTING WT, sequence (Q86WV6 whole entry H232R): as the sequence (Q86WV6 whole entry H232R) above

NCI-H292 cells = experiment: Immunogenic cell death markers (HMGB1 release, surface calreticulin); format: cell-based, human; details: 48 hours
Experimental: Immunogenic cell death elicited by the TROP2 ADC, iSAC, and exatecan were measured by cell surface translocate of calreticulin and release of HMGB1 in the cell culture supernatant. Briefly, TROP2 positive cell line NCI-H292 were seeded into a 96-well flat bottom plate 4 hours prior to the initialization of the assay. Test articles were formulated at a 2× starting concentration in cell culture medium, and samples were serial diluted (1:3) under sterile conditions and added onto the cells in duplicates. After incubation at 37° C. in a CO2 incubator for 48 hours, the cell supernatant was collected for measuring HMGB1 and the adherent cells were collected for calreticulin expression on the cell surface.
HMGB1 released in the supernatant was assessed via sandwich ELISA using mouse anti-human HMGB1 clone 2F6 (Sigma-Aldrich) as the capture, polyclonal rabbit anti-human HMGB1 (Abcam) as secondary, and polyclonal goat anti-rabbit IgG HRP as the detection antibody. The HMGB1 concentrations in the cell culture medium were calculated based a standard curve built on commercially available recombinant human HMGB1 (R&D Systems).
NCI-H292 cells were detached using Accutase (Innovative Cell Technologies) and viability was accessed using a 1:500 dilution of Zombie NIR viability dye. […] Surface calreticulin measures on the live cells were gathered using an Attune NXT Flow Cytometer (ThermoFisher Scientific) to obtain median fluorescence intensity values. All data were fitted with non-linear regression analysis, using log(agonist) vs. response, variable slope, 4 parameter fit equation using GraphPad Prism.

[3] = tested on: TROP2 positive NCI-H292 Cells; experiment: Cytokine release from cancer cells (MSD); format: cell-based, human; details: 120 hours; for EC50: Homo sapiens
Experimental: The cell supernatant was collected and IP-10 and IL-6 released in the cell culture medium was measured using Streptavidin single spot 96 well plates, compatible human antibody pairs, and calibrating solutions commercially available from MesoScale Discovery. Raw data generated by the Meso Scale Discovery (MSD®) SQ120 plate reader was imported into MSD Discovery Workbench software. Unknown sample values were interpolated from standard curves by the software and imported into Graphpad Prism. Each cytokine level was fitted with non-linear regression analysis, using log (agonist) vs. response, variable slope, 4-parameter fit equation in GraphPad Prism.

SMILES	EC50 (hSTING-R232) [nM]	EC50 (hSTING-HAQ haplotype) [nM]	Kd (hSTING H232 [1]) [µM]	EC50 (hSTING H232 [2]) [nM]	Kd (hSTING AQ) [µM]	EC50 (mSTING) [nM]	Kd (hSTING WT) [µM]	HMGB-1 Release Span (NCI-H292 cells) [ng/mL]	EC50 (NCI-H292 cells; Homo sapiens, sandwich ELISA, read-out: HMGB-1 Release EC50) [µM]	IL-6 Release Span [3] [pg/mL]	IP-10 Release Span [3] [pg/mL]	EC50 ([3]; read-out: IL-6 Release EC50) [µM]	EC50 ([3]; read-out: IP-10 Release EC50) [µM]
CCn1nc(C)cc1C(=O)Nc1nc2cc(C(N)=O)ccc2n1C/C=C/Cn1c(NC(=O)c2cc(C)nn2CC)nc2cc(C(N)=O)cc(OCCCN3CC4(C3)CN(C(=O)CON=C(C)c3ccc(C[C@H](N)C(=O)O)cc3)CCO4)c21 (racemic) [LP-1-4, rac-(2S)-2-amino-3-[4-[N-[2-[2-[3-[6-carbamoyl-2-[(2-ethyl-5-methyl-pyrazole-3-carbonyl)amino]-3-[rac-(E)-4-[5-carbamoyl-2-[(2-ethyl-5-methyl-pyrazole-3-carbonyl)amino]benzimidazol-1-yl]but-2-enyl]benzimidazol-4-yl]oxypropyl]-5-oxa-2,8-diazaspiro[3.5]nonan-8-yl]-2-oxo-ethoxy]-C-methyl-carbonimidoyl]phenyl]propanoic acid]	> 150	> 150	≤ 0.02	> 150	≤ 0.02	> 150	≤ 0.02						
CCn1nc(C)cc1C(=O)Nc1nc2cc(C(N)=O)ccc2n1C/C=C/Cn1c(NC(=O)c2cc(C)nn2CC)nc2cc(C(N)=O)cc(OCCCN3CC4(CNCCO4)C3)c21 [Compound 1]	≤ 50	≤ 50	≤ 0.02	≤ 50	≤ 0.02	> 150	≤ 0.02	17	0.00606	>10000	>4000	> 0.1	> 0.1
CCn1nc(C)cc1C(=O)Nc1nc2cc(C(N)=O)ccc2n1C/C=C/Cn1c(NC(=O)c2cc(C)nn2CC)nc2cc(C(N)=O)cc(OCCCN3CC4(C3)CN(C(=O)[C@@H](N)CC(C)C)CCO4)c21 [Compound 2, (E)-7-(3-(8-(L-leucyl)-5-oxa-2,8-diazaspiro[3.5]nonan-2-yl)propoxy)-1-(4-(5-carbamoyl-2-(1-ethyl-3-methyl-1H-pyrazole-5-carboxamido)-1H-benzo[d]imidazol-1-yl)but-2-en-1-yl)-2-(1-ethyl-3-methyl-1H-pyrazole-5-carboxamido)-1H-benzo[d]imidazole-5-carboxamide]	≤ 50	50 to 150	≤ 0.02	≤ 50	≤ 0.02	> 150	≤ 0.02						
CCn1nc(C)cc1C(=O)Nc1nc2cc(C(N)=O)ccc2n1C/C=C/Cn1c(NC(=O)c2cc(C)nn2CC)nc2cc(C(N)=O)cc(OCCCN3CC4(C3)CN(C(=O)CN)CCO4)c21 [Compound 3]	50 to 150	50 to 150	≤ 0.02	50 to 150	≤ 0.02	> 150	≤ 0.02						
CCn1nc(C)cc1C(=O)Nc1nc2cc(C(N)=O)cc(OC)c2n1C/C=C/Cn1c(NC(=O)c2cc(C)nn2CC)nc2cc(C(N)=O)cc(OCCCN3CC4(CNCCO4)C3)c21 [Compound 6]	≤ 50	≤ 50	≤ 0.02	≤ 50	≤ 0.02	50 to 150	≤ 0.02						
CCn1nc(C)cc1C(=O)Nc1nc2cc(C(N)=O)ccc2n1C/C=C/Cn1c(NC(=O)c2cc(C)nn2CC)nc2cc(C(N)=O)cc(OCCCN3CC4(C3)CN(C(=O)CON)CCO4)c21 [LP-1-1, 7-[3-[8-(2-aminooxyacetyl)-5-oxa-2,8-diazaspiro[3.5]nonan-2-yl]propoxy]-1-[(E)-4-[5-carbamoyl-2-[(2-ethyl-5-methyl-pyrazole-3-carbonyl)amino]benzimidazol-1-yl]but-2-enyl]-2-[(2-ethyl-5-methyl-pyrazole-3-carbonyl)amino]benzimidazole-5-carboxamide]	> 150	50 to 150	≤ 0.02	> 150	≤ 0.02	> 150	≤ 0.02						
